Assay results taken from US20240391800A1, “HYPERSALINE DESALINATION USING IONIC LIQUIDS AND LOW-TEMPERATURE HEAT” (UNIVERSITY OF NOTRE DAME DU LAC, priority 2021, published 2024).
“And” between values parts separate entries of the source, which are not always exact repeats. Identical values can stand only once.

Key:
[1] = Ionic liquid concentration / solubility in NaCl solution or brine; type: physicochemical
Description: Additional experiments were performed to measure IL concentration in the brine with different salinities. In these experiments, the brine (MX, FIG. 1) salinity is 4% or higher depending on the initial mixing ratio of the saline water and IL.

Viscosity (rheometer) = type: physicochemical; conditions: for Viscosity: TA Instrument Discovery HR-2, temperature not stated; for Viscosity in Pa · s: 293 K
Description: Table 3. The viscosity was measured with Discovery Hybrid Rheometer 2.

[2] = Directional solvent extraction (DSE) desalination cycle, moderate / seawater-salinity NaCl feed; conditions: seawater salinity feedwater (3.5 wt %, 14,000 ppm Na+)
Description: (§1) The mixture was maintained at that temperature for ˜10 minutes for phase separation, expecting the brine to separate from the IL. The IL phase, which contained pure water dissolved within it, was collected, and cooled down to room temperature, precipitating out the fresh water due to lowered solubility in the IL. The separation of these two phases was facilitated by a centrifuge at 3000 rpm. The amount of recovered water was used to calculate the yield, and the water was also characterized for contents of NaCl ions and residual ILs to verify directional solubilities. The NaCl ion concentration was measured using Perkin Elmer Optima 8000 ICP-OES and the IL content is measured using Waters TQD triple mass spectrometer coupled to an Acquity ultrahigh pressure liquid chromatography system.
All Na^+ concentration measurements were performed using Perkin Elmer Optima 8000 ICP-OES. Since all water samples in the experiment were deionized water, it was rational to assume that the molar concentration of Na^+ was equal to that of NaCl. […] A set of calibration curves of conductivity versus Na^+ ion concentration was created prior to the measurements. […] Samples with different IL/water ratios are mixed in beaker with stirring speed of 300 rpm for 10 hours, and then a 3-hour sitting period was allowed to guarantee thermodynamic equilibrium of dissolution. Because the ILs tested have higher density than water, the solution in the top layer was extracted as the sample. […] The intensity of a certain ion acquired by the mass spectrometer proportionally reflected the concentration of this kind of ion in the water solution.
The DS performance in a DSE desalination cycle was evaluated for the assembled ILs, which involved first exposure to water bearing 3.7-5.0 wt % of NaCl (11,000-15,000 ppm of Na^+) followed by thorough mixing at elevated temperatures of 45, 60 or 75° C. […] The amount of residual NaCl and IL in the recovered aqueous phase was then measured using atomic emission spectroscopy and liquid chromatography-mass spectrometry.

[3] = Solubility of ionic liquid in water (LC-MS of [Tf2N]-); conditions: for Solubility in H2O: Table 7 / Example 2; for Solubility in H2O (ppm): IL in water / residual in recovered water
Description: Samples with different IL/water ratios are mixed in beaker with stirring speed of 300 rpm for 10 hours, and then a 3-hour sitting period was allowed to guarantee thermodynamic equilibrium of dissolution. Because the ILs tested have higher density than water, the solution in the top layer was extracted as the sample. […] The intensity of a certain ion acquired by the mass spectrometer proportionally reflected the concentration of this kind of ion in the water solution.

[4] = DSE desalination cycle, high-salinity / saturated / hypersaline NaCl feed
Description: as §1

With `CC[n+]1ccn(C)n1` [[1,2,3-emtriz][Tf2N], 1-ethyl-3-methyl-1,2,3-triazolium bistriflimide] the “solubility in 4% NaCl solution” value [1] was “about 41 ppm”, the Viscosity (Viscosity (rheometer)) was 0.035 Pa · s and the “Ion rejection, seawater concentration” value [2] was 92.5%. The “Solubility in H2O” value [3] was about 390 ppm.

In the case of `CC(C)C[C@H](NS(=O)(=O)C(F)(F)F)C(=O)O.CCCCCCCC[P+](CCCC)(CCCC)CCCC` [[P4448] I-Leu, Tributyloctylphosphonium trifluoromethanesulfonylleucine], the “Viscosity in Pa · s” value (Viscosity (rheometer)) is reported as 1.017 ± 0.078 Pa · s.

With `CCCCCCCC[P+](CCCC)(CCCC)CCCC` [[P4448][Bzlm]] [Tributyloctylphosphonium benzo[d]imidazol-1-ide] the “Viscosity in Pa · s” value (Viscosity (rheometer)) was 0.185 ± 0.092 Pa · s.

In the case of `CCCCCCCC[P+](CCCC)(CCCC)CCCC` [[P4448][Tf2N]] [Tributyloctylphosphonium bis(trifluoromethanesulfonyl)imide], the “Viscosity in Pa · s” value (Viscosity (rheometer)) is reported as 0.433 Pa · s and 0.433 ± 0.099 Pa · s.

In the case of `CCCCCCCCCCCCCC[P+](CCCCCC)(CCCCCC)CCCCCC` [[P66614][Tf2N], Trihexyltetradecylphosphonium bis(trifluoromethanesulfonyl)imide], the “Viscosity in Pa · s” value (Viscosity (rheometer)) is reported as 0.081 ± 0.059 Pa · s.

With `CCCCn1cc[n+](C)c1` [[bmim][Tf2N], 1-Butyl-3-methylimidazolium bis(trifluoromethylsulfonyl)imide] the “Viscosity in Pa · s” value (Viscosity (rheometer)) was 0.056 ± 0.010 Pa · s and the “Solubility in H2O (ppm)” value [3] was under 90 ppm.

In the case of `CCn1cc[n+](C)c1` [[emim][Tf2N], 1-Ethyl-3-methylimidazolium bis(trifluoromethylsulfonyl)imide], the “IL concentration in the brine (MX)” value ([1]; brine with 4% salinity) is reported as 4 ppm, the “IL solubility in saturated NaCl solution” value ([1]; saturated NaCl solution) is reported as “lower than 4 ppm” and the “Viscosity in Pa · s” value (Viscosity (rheometer)) is reported as 0.033 ± 0.014 Pa · s. For the same compound, the “Solubility in H2O (ppm)” value [3] was 130-150 ppm.

With `COC[n+]1ccn(C)c1` [[mommim][Tf2N], 1-(methoxymethyl)-3-methyl-1H-imidazol-3-ium bis(trifluoromethylsulfonyl)imide] the “solubility in 4% NaCl solution” value [1] was “about 26 ppm”, the Viscosity (Viscosity (rheometer)) was 0.056 Pa · s and the “Ion rejection, seawater concentration” value [2] was 95.2%. For the same compound, the “highest salt rejection rate obtained” value ([4]; NaCl 19.6 wt % hypersaline feed) was 95.8%, the “Ion rejection, hypersaline” value ([4]; NaCl 19.6 wt %, Na+ 77,300 ppm feed, average of samples) was 89.5% and the “Solubility in H2O” value [3] was about 270 ppm.
